# Reference: article PMC8772941 (Biomedicines, 2021)
# Read-outs that look alike come from different tables or passages of the source. Marks after values point to notes of the source that are not given here.
# Key:
# D2R L94A = system: D2R L94A; set-up: method as in PMID 29325769; conditions: log values from pERK assay; cited from earlier work
# GIRK1/4 = molecular target: T1, GIRK1/4 (Homo sapiens, UniProt P48544+P48549); experiment: Control: direct inhibition of GIRK currents in oocytes expressing GIRK1/4 in the absence of the D2R
# T1 sequence (P48549 1-501): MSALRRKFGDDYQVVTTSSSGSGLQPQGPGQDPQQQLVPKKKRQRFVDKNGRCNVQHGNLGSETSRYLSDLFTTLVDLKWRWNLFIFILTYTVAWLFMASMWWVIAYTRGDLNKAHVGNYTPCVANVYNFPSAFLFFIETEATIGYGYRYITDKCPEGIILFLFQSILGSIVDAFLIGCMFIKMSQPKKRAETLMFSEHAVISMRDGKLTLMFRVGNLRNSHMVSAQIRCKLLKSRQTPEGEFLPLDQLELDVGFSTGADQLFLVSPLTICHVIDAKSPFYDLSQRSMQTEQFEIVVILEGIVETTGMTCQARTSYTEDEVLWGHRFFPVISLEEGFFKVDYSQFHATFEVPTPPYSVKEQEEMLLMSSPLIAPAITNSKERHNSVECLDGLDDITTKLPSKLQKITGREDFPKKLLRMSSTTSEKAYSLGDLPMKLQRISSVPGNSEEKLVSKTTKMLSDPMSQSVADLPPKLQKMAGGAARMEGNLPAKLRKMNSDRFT
# T1 sequence (P48544 1-419): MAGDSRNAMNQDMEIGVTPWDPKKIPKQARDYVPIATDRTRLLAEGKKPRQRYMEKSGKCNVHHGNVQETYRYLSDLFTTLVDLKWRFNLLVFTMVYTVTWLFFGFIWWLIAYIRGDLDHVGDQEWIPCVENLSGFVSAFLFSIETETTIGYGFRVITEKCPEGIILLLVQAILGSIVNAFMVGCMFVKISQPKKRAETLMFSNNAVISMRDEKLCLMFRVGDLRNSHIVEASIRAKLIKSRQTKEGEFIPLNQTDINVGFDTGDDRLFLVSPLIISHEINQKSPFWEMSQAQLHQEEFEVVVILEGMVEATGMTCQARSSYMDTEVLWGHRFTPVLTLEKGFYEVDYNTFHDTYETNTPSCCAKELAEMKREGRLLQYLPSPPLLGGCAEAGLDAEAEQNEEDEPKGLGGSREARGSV
# Experimental: Plasmids were linearized using the appropriate restriction enzymes (D2R, RGS4; XhoI and GIRK1/GIRK4; NotI), followed by in vitro transcription using the T7 mMessage mMachine kit (Ambion, Austin, TX, USA). cRNA concentration and purity were determined by spectrophotometry.
# Following RNA injection and 6 days of incubation at 12 °C, electrophysiological experiments were performed on the oocytes using the parallel eight-channel, semi-automated, two-electrode voltage-clamp OpusXpress 6000A (Molecular Devices, San José, CA) [13, 14]. Continuous perfusion, mediated by Minipuls 3 peristaltic pumps (Gilson, Middleton, WI, USA), was maintained at 0.5 mL/min. Data were acquired at a membrane potential of −80 mV and sampled at 156 Hz using OpusXpress 1.10.42 (Molecular Devices) software. To increase the inward-rectifier potassium channel current at negative potentials, a high potassium concentration extracellular perfusion fluid was used (64 mM NaCl, 25 mM KCl, 0.8 mM MgCl2, 0.4 mM CaCl2, 15 mM HEPES, 1 mM ascorbic acid, adjusted to pH 7.4 with NaOH), yielding a K^+ reversal potential of about −40 mV.
# D2R S194A = system: D2R S194A; set-up: method as in PMID 29325769; conditions: log values from pERK assay; cited from earlier work
# D2R E95A = system: D2R E95A; set-up: method as in PMID 29325769; conditions: log values from pERK assay; cited from earlier work
# D2R = conditions: in the presence of µM concentrations of DA; pre-incubation protocols; cited from earlier work
# WT D2R [1] = system: WT D2R; set-up: method as in PMID 29325769; conditions: log values from pERK assay; cited from earlier work
# WT D2R [2] = system: WT D2R; set-up: method as in PMID 29325769; conditions: log value from radioligand binding; cited from earlier work
# D2R V91A = system: D2R V91A; set-up: method as in PMID 29325769; conditions: log values from pERK assay; cited from earlier work
# D2R S193A = system: D2R S193A; set-up: method as in PMID 29325769; conditions: log value from radioligand binding; cited from earlier work
smiles,measurement,setting,value
"N#Cc1ccc2c(c1)CN(CC[C@H]1CC[C@H](NC(=O)c3cc4ccccc4[nH]3)CC1)CC2 [SB269,652, N-((trans)-4-(2-(7-cyano-3,4-dihydroisoquinolin-2(1H)-yl)ethyl)cyclohexyl)-1H-indole-2-carboxamide]","Negative Cooperativity of SB269,652 Interaction with DA",D2R L94A,↓ 0.70 ± 0.08
same,Ligand-mediated direct inhibition of GIRK currents (>10%),GIRK1/4,not observed
same,"Negative Cooperativity of SB269,652 Interaction with DA",D2R S194A,↓ 0.52 ± 0.09
same,"Negative Cooperativity of SB269,652 Interaction with DA",D2R E95A,↓ 0.32 ± 0.14
same,"SB269,652 IC50 at the D2R in previous reports",D2R,high nM range
same,"Negative Cooperativity of SB269,652 Interaction with DA",WT D2R [1],1.23 ± 0.14
same,"Negative Cooperativity of SB269,652 Interaction with DA",WT D2R [2],0.54 ± 0.11
same,"Negative Cooperativity of SB269,652 Interaction with DA",D2R V91A,↓ 0.48 ± 0.16
same,"Negative Cooperativity of SB269,652 Interaction with DA",D2R S193A,↑ (1.47 ± 0.15 *) ^b
